Assay results: ChEMBL document CHEMBL1921773, “Carbamates of 4'-demethyl-4-deoxypodophyllotoxin: synthesis, cytotoxicity and cell cycle effects” (Bioorg Med Chem Lett, 2011)

Assays:
HeLa = assay: Cytotoxicity against human HeLa cells assessed as growth inhibition after 48 hrs by CCK-8 assay; assay type: functional, cell-based
HL-60 = assay: Cytotoxicity against human HL60 cells assessed as growth inhibition after 48 hrs by CCK-8 assay; assay type: functional, cell-based; conditions: HL-60, 48 h
SiHa = assay: Cytotoxicity against human SiHa cells assessed as growth inhibition after 48 hrs by MTT assay; assay type: functional, cell-based
A549 [1] = assay: Cytotoxicity against human A549 cells assessed as growth inhibition after 48 hrs by MTT assay; assay type: functional, cell-based; conditions: A549, 48 h
[2] = Octanol-water partition coefficient, log P of the compound; assay type: physicochemical
A549 [3] = assay: Cell cycle arrest in human A549 cells assessed as accumulation of cells at S phase at 0.4 uM after 24 hrs by propidium iodide staining-based flow cytometry (reference value: 36.7%); assay type: functional
A549 [4] = assay: Cell cycle arrest in human A549 cells assessed as accumulation of cells at G2/M phase at 0.4 uM by propidium iodide staining-based flow cytometry (reference value: 3.2%); assay type: functional; conditions: TDE = time-dependent effect
A549 [5] = assay: Cell cycle arrest in human A549 cells assessed as accumulation of cells at G1 phase at 0.4 uM after 24 hrs by propidium iodide staining-based flow cytometry (reference value: 59.9%); assay type: functional
A549 [6] = assay: Cell cycle arrest in human A549 cells assessed as accumulation of cells at G2/M phase at 0.4 uM after 24 hrs by propidium iodide staining-based flow cytometry (reference value: 3.2%); assay type: functional
A549 [7] = assay: Cell cycle arrest in human A549 cells assessed as accumulation of cells at G2/M phase at 0.4 uM after 12 hrs by propidium iodide staining-based flow cytometry (reference value: 3.2%); assay type: functional
A549 [8] = assay: Cell cycle arrest in human A549 cells assessed as accumulation of cells at G1 phase at 0.4 uM after 12 hrs by propidium iodide staining-based flow cytometry (reference value: 59.9%); assay type: functional
A549 [9] = assay: Cell cycle arrest in human A549 cells assessed as accumulation of cells at S phase at 0.4 uM after 12 hrs by propidium iodide staining-based flow cytometry (reference value: 36.7%); assay type: functional

## COc1cc([C@@H]2c3cc4c(cc3C[C@H]3COC(=O)[C@@H]32)OCO4)cc(OC)c1O [4'-DEMETHYLDEOXYPODOPHYLLOTOXIN]
HeLa
  IC50: 43000 nM
HL-60
  IC50: 2960 nM
SiHa
  IC50: 53300 nM
A549 [1]
  IC50: 1800 nM
[2]
  logP: 2.92

## COc1cc([C@@H]2c3cc4c(cc3C[C@H]3COC(=O)[C@@H]32)OCO4)cc(OC)c1OC(=O)N[C@H](CCSC)C(N)=O
HeLa
  IC50: 528 nM
A549 [3]
  Activity: 30.7%
A549 [4]
  Activity: tde
A549 [5]
  Activity: 11.2%
HL-60
  IC50: 89.3 nM
A549 [6]
  Activity: 58.1%
SiHa
  IC50: 614 nM
A549 [1]
  IC50: 887 nM
[2]
  logP: 0.26
A549 [7]
  Activity: 27.7%
A549 [8]
  Activity: 22.6%
A549 [9]
  Activity: 49.7%

## COc1cc([C@@H]2c3cc4c(cc3C[C@H]3COC(=O)[C@@H]32)OCO4)cc(OC)c1OC [DESOXYPODOPHYLLOTOXIN]
HeLa
  IC50: 1980 nM
HL-60
  IC50: 470 nM
SiHa
  IC50: 6010 nM
A549 [1]
  IC50: 1380 nM
[2]
  logP: 3.16

## COc1cc([C@@H]2c3cc4c(cc3C[C@H]3COC(=O)[C@@H]32)OCO4)cc(OC)c1OC(=O)N[C@@H](Cc1ccccc1)C(=O)NC1CC1
HeLa
  IC50: 693 nM
HL-60
  IC50: 416 nM
SiHa
  IC50: 1120 nM
A549 [1]
  IC50: 3370 nM
[2]
  logP: 1.95

## CC[C@H](C)[C@H](NC(=O)Oc1c(OC)cc([C@@H]2c3cc4c(cc3C[C@H]3COC(=O)[C@@H]32)OCO4)cc1OC)C(N)=O
HeLa
  IC50: 5280 nM
HL-60
  IC50: 1020 nM
SiHa
  IC50: 3700 nM
A549 [1]
  IC50: 1770 nM
[2]
  logP: 1.36

## COc1cc([C@@H]2c3cc4c(cc3C[C@H]3COC(=O)[C@@H]32)OCO4)cc(OC)c1OC(=O)N[C@H](C(N)=O)C(C)C
HeLa
  IC50: 3830 nM
HL-60
  IC50: 1030 nM
SiHa
  IC50: 2890 nM
A549 [1]
  IC50: 1490 nM
[2]
  logP: 0.84

## COc1cc([C@@H]2c3cc4c(cc3C[C@H]3COC(=O)[C@@H]32)OCO4)cc(OC)c1OC(=O)N[C@@H](Cc1ccccc1)C(=O)NC1CCCC1
HeLa
  IC50: 3070 nM
HL-60
  IC50: 988 nM
SiHa
  IC50: 6870 nM
A549 [1]
  IC50: 2690 nM
[2]
  logP: 2.06

## COc1cc([C@@H]2c3cc4c(cc3C[C@H]3COC(=O)[C@@H]32)OCO4)cc(OC)c1OC(=O)N[C@@H](Cc1ccccc1)C(N)=O
HeLa
  IC50: 1720 nM
HL-60
  IC50: 940 nM
SiHa
  IC50: 1070 nM
A549 [1]
  IC50: 3410 nM
[2]
  logP: 1.35

## COc1cc([C@@H]2c3cc4c(cc3C[C@H]3COC(=O)[C@@H]32)OCO4)cc(OC)c1OC(=O)N[C@H](Cc1ccccc1)C(N)=O
HeLa
  IC50: 575 nM
HL-60
  IC50: 231 nM
SiHa
  IC50: 416 nM
A549 [1]
  IC50: 1610 nM
[2]
  logP: 1.33

## COc1cc([C@@H]2c3cc4c(cc3C[C@H]3COC(=O)[C@@H]32)OCO4)cc(OC)c1OC(=O)N[C@H](C(=O)NC1CC1)C(C)C
HeLa
  IC50: 433 nM
HL-60
  IC50: 213 nM
SiHa
  IC50: 432 nM
A549 [1]
  IC50: 2310 nM
[2]
  logP: 1.45

## COc1cc([C@@H]2c3cc4c(cc3C[C@H]3COC(=O)[C@@H]32)OCO4)cc(OC)c1OC(=O)N[C@H](C(=O)NC1CCCC1)C(C)C
HeLa
  IC50: 20300 nM
HL-60
  IC50: 1030 nM
SiHa
  IC50: 14600 nM
A549 [1]
  IC50: 1910 nM
[2]
  logP: 2.57

## COc1cc([C@@H]2c3cc4c(cc3C[C@H]3COC(=O)[C@@H]32)OCO4)cc(OC)c1OC(=O)N[C@@H](CC(C)C)C(N)=O
HeLa
  IC50: 703 nM
HL-60
  IC50: 670 nM
SiHa
  IC50: 877 nM
A549 [1]
  IC50: 9930 nM
[2]
  logP: 1.26

## COc1cc([C@@H]2c3cc4c(cc3C[C@H]3COC(=O)[C@@H]32)OCO4)cc(OC)c1OC(=O)N[C@@H](C)C(N)=O
HeLa
  IC50: 743 nM
HL-60
  IC50: 397 nM
SiHa
  IC50: 696 nM
A549 [1]
  IC50: 4230 nM
[2]
  logP: -0.09

## COc1cc([C@@H]2c3cc4c(cc3C[C@H]3COC(=O)[C@@H]32)OCO4)cc(OC)c1OC(=O)N[C@@H](CCSC)C(N)=O
HeLa
  IC50: 2030 nM
HL-60
  IC50: 711 nM
SiHa
  IC50: 4320 nM
A549 [1]
  IC50: 860 nM
[2]
  logP: 0.28

## COc1cc([C@@H]2c3cc4c(cc3[C@@H](O[C@@H]3O[C@@H]5CO[C@@H](C)O[C@H]5[C@H](O)[C@H]3O)[C@H]3COC(=O)[C@H]23)OCO4)cc(OC)c1O [ETOPOSIDE]
HeLa
  IC50: 2760 nM
HL-60
  IC50: 2850 nM
SiHa
  IC50: 40400 nM
A549 [1]
  IC50: 24900 nM
[2]
  logP: 0.69
